Measurements published in ChEMBL document CHEMBL3352110, “Design, synthesis and in vitro evaluation of novel dehydroabietic acid derivatives containing a dipeptide moiety as potential anticancer agents” (Eur J Med Chem, 2015).

Experiments:
Format in all cases: functional, cell-based
HeLa = experiment: Cytotoxicity against human HeLa cells after 48 hrs by MTT assay
[1] = Cytotoxicity against human HL7702 cells after 48 hrs by MTT assay; details: L02, 48 h
NCI-H460 = experiment: Cytotoxicity against human NCI-H460 cells after 48 hrs by MTT assay; details: NCI-H460, 48 h
MGC-803 = experiment: Cytotoxicity against human MGC803 cells after 48 hrs by MTT assay; details: MGC-803, 48 h

Row | Compound | IC50 (HeLa) | IC50 [1] | IC50 (NCI-H460) | IC50 (MGC-803)
1 | CC(C)c1ccc2c(c1)C(=O)C[C@H]1[C@](C)(C(=O)N[C@H](Cc3ccccc3)C(=O)Nc3ccccc3Cl)CCC[C@]21C | > 100 µM | 46.5 µM | 50 µM | 29.7 µM
2 | COc1cc(NC(=O)[C@@H](Cc2ccccc2)NC(=O)[C@]2(C)CCC[C@]3(C)c4ccc(C(C)C)cc4/C(=N\O)C[C@@H]23)cc(OC)c1OC | 32 µM | 56.2 µM | 36.1 µM | 15.6 µM
3 | CC(C)c1ccc2c(c1)C(=O)C[C@H]1[C@](C)(C(=O)N[C@H](Cc3ccccc3)C(=O)Nc3ccc(F)cc3)CCC[C@]21C | 16.3 µM | 52.4 µM | 34.3 µM | 39.6 µM
4 | COc1ccc(NC(=O)[C@@H](Cc2ccccc2)NC(=O)[C@]2(C)CCC[C@]3(C)c4ccc(C(C)C)cc4C(=O)C[C@@H]23)cc1 | 16.3 µM | 55.4 µM | 34.3 µM | 39.6 µM
5 | CC(C)c1ccc2c(c1)/C(=N\O)C[C@H]1[C@](C)(C(=O)N[C@H](Cc3ccccc3)C(=O)Nc3ccccc3Cl)CCC[C@]21C | 26.6 µM | 48.2 µM | 26.9 µM | 17 µM
6 | CC(C)c1ccc2c(c1)/C(=N\O)C[C@H]1[C@](C)(C(=O)N[C@H](Cc3ccccc3)C(=O)Nc3ccc(Cl)cc3)CCC[C@]21C | 20.2 µM | 57.9 µM | 17.6 µM | 17.8 µM
7 | CC(C)c1ccc2c(c1)/C(=N\O)C[C@H]1[C@](C)(C(=O)N[C@@H](Cc3ccccc3)C(=O)Nc3ccccc3F)CCC[C@]21C | 34.1 µM | 57.5 µM | 44.8 µM | 17.8 µM
8 | COc1cc(NC(=O)[C@H](Cc2ccccc2)NC(=O)[C@]2(C)CCC[C@]3(C)c4ccc(C(C)C)cc4C(=O)C[C@@H]23)cc(OC)c1OC | 49.6 µM | 69.5 µM | 54.6 µM | 21.3 µM
9 | COc1ccccc1NC(=O)[C@H](Cc1ccccc1)NC(=O)[C@]1(C)CCC[C@]2(C)c3ccc(C(C)C)cc3C(=O)C[C@@H]12 | 14.7 µM | 57.5 µM | 33.8 µM | 39.4 µM
10 | CC(C)c1ccc2c(c1)C(=O)C[C@H]1[C@](C)(C(=O)N[C@@H](Cc3ccccc3)C(=O)Nc3ccc(F)cc3)CCC[C@]21C | 63.5 µM | 66.5 µM | 61.6 µM | 20.1 µM
11 | CC(C)c1ccc2c(c1)/C(=N\O)C[C@H]1[C@](C)(C(=O)N[C@H](Cc3ccccc3)C(=O)Nc3ccc(F)cc3)CCC[C@]21C | 20.6 µM | 53.8 µM | 58.6 µM | 17.3 µM
12 | O=c1[nH]cc(F)c(=O)[nH]1 [FLUOROURACIL] | 36.5 µM |  |  | 30.4 µM
13 | COc1ccccc1NC(=O)[C@@H](Cc1ccccc1)NC(=O)[C@]1(C)CCC[C@]2(C)c3ccc(C(C)C)cc3C(=O)C[C@@H]12 | 40.7 µM | 55.7 µM | 85.4 µM | 30.9 µM
14 | CC(C)c1ccc2c(c1)C(=O)C[C@H]1[C@](C)(C(=O)N[C@@H](Cc3ccccc3)C(=O)Nc3ccc(Cl)cc3)CCC[C@]21C | 36 µM | 57.8 µM | 49.1 µM | 29 µM
15 | COc1ccc(NC(=O)[C@@H](Cc2ccccc2)NC(=O)[C@]2(C)CCC[C@]3(C)c4ccc(C(C)C)cc4/C(=N\O)C[C@@H]23)cc1 | 17.3 µM | 56.2 µM | 20.4 µM | 15 µM
16 | CC(C)c1ccc2c(c1)/C(=N\O)C[C@H]1[C@](C)(C(=O)N[C@@H](Cc3ccccc3)C(=O)Nc3ccccc3Cl)CCC[C@]21C | 22.8 µM | 45.9 µM | 36.5 µM | 22.4 µM

Row | Compound | IC50 (HeLa) | IC50 [1] | IC50 (NCI-H460) | IC50 (MGC-803)
17 | COc1cc(NC(=O)[C@H](Cc2ccccc2)NC(=O)[C@]2(C)CCC[C@]3(C)c4ccc(C(C)C)cc4/C(=N\O)C[C@@H]23)cc(OC)c1OC | 25.9 µM | 49.6 µM | 36.6 µM | 17.5 µM
18 | CC(C)c1ccc2c(c1)C(=O)C[C@H]1[C@](C)(C(=O)N[C@H](Cc3ccccc3)C(=O)Nc3ccc(Cl)cc3)CCC[C@]21C | 32.3 µM | 76.3 µM | 23.4 µM | 20.2 µM
19 | COc1ccccc1NC(=O)[C@@H](Cc1ccccc1)NC(=O)[C@]1(C)CCC[C@]2(C)c3ccc(C(C)C)cc3/C(=N\O)C[C@@H]12 | 18.4 µM | 57.9 µM | 37.1 µM | 18.7 µM
20 | CC(C)c1ccc2c(c1)/C(=N\O)C[C@H]1[C@](C)(C(=O)N[C@@H](Cc3ccccc3)C(=O)Nc3ccc(Cl)cc3)CCC[C@]21C | 101 µM | 60.8 µM | 102 µM | 25.8 µM
21 | COc1ccc(NC(=O)[C@H](Cc2ccccc2)NC(=O)[C@]2(C)CCC[C@]3(C)c4ccc(C(C)C)cc4/C(=N\O)C[C@@H]23)cc1 | 10.9 µM | 49.6 µM | 32 µM | 14.6 µM
22 | COc1ccc(NC(=O)[C@H](Cc2ccccc2)NC(=O)[C@]2(C)CCC[C@]3(C)c4ccc(C(C)C)cc4C(=O)C[C@@H]23)cc1 | 52.3 µM | 59.6 µM | > 100 µM | 49 µM
23 | CC(C)c1ccc2c(c1)C(=O)C[C@H]1[C@](C)(C(=O)N[C@H](Cc3ccccc3)C(=O)Nc3ccccc3F)CCC[C@]21C | 25.9 µM | 53.3 µM | 61.4 µM | 18.9 µM
24 | CC(C)c1ccc2c(c1)/C(=N\O)C[C@H]1[C@](C)(C(=O)N[C@H](Cc3ccccc3)C(=O)Nc3ccccc3F)CCC[C@]21C | 20.8 µM | 54.8 µM | 42.5 µM | 13.4 µM
25 | COc1ccccc1NC(=O)[C@H](Cc1ccccc1)NC(=O)[C@]1(C)CCC[C@]2(C)c3ccc(C(C)C)cc3/C(=N\O)C[C@@H]12 | 19.3 µM | 58.8 µM | 31 µM | 11.9 µM
26 | CC(C)c1ccc2c(c1)C(=O)C[C@H]1[C@](C)(C(=O)N[C@H](Cc3ccccc3)C(=O)Nc3ccccc3)CCC[C@]21C | 57.8 µM | 53.3 µM | 51.9 µM | 30.5 µM
27 | CC(C)c1ccc2c(c1)CC[C@H]1[C@](C)(C(=O)O)CCC[C@]21C [DEHYDROABIETIC ACID] |  |  |  | > 100 µM
28 | CC(C)c1ccc2c(c1)C(=O)C[C@H]1[C@](C)(C(=O)N[C@@H](Cc3ccccc3)C(=O)Nc3ccccc3)CCC[C@]21C | 29.1 µM | 51.6 µM | 29 µM | 27.6 µM
29 | CC(C)c1ccc2c(c1)C(=O)C[C@H]1[C@](C)(C(=O)N[C@@H](Cc3ccccc3)C(=O)Nc3ccccc3F)CCC[C@]21C | 18.9 µM | 47.6 µM | 57.1 µM | 18.9 µM
30 | CC(C)c1ccc2c(c1)/C(=N\O)C[C@H]1[C@](C)(C(=O)N[C@@H](Cc3ccccc3)C(=O)Nc3ccccc3)CCC[C@]21C | 16 µM | 45.9 µM | 41.3 µM | 16 µM
31 | COc1cc(NC(=O)[C@@H](Cc2ccccc2)NC(=O)[C@]2(C)CCC[C@]3(C)c4ccc(C(C)C)cc4C(=O)C[C@@H]23)cc(OC)c1OC | 19.2 µM | 57.4 µM | 27.9 µM | 26.4 µM
32 | CC(C)c1ccc2c(c1)/C(=N\O)C[C@H]1[C@](C)(C(=O)N[C@@H](Cc3ccccc3)C(=O)Nc3ccc(F)cc3)CCC[C@]21C | 20.7 µM | 49.7 µM | 23.4 µM | 24.4 µM
